Measured values: ChEMBL document CHEMBL1201862, “PubChem BioAssay data set” (2004)
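All cell lines were grown in 96-well plates and treated with compound for 48 hours. Abbreviation: GI50, concentration required for 50% inhibition of growth.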 The source made the active and inactive calls. Rule as the data show it: active = GI50 up to about 1.1 µM and inactive = higher.

Tests used:
Assay in all cases: inhibition of tumour cell growth, NCI panel, 48 h
[1] = test system: ACHN
[2] = test system: CAKI-1
[3] = test system: COLO 205
[4] = test system: HCT-15
[5] = test system: HL-60
[6] = test system: HOP-92
[7] = test system: KM12
[8] = test system: OVCAR-4
[9] = test system: OVCAR-5
[10] = test system: OVCAR-8
[11] = test system: PC-3
[12] = test system: RPMI-8226
[13] = test system: SK-MEL-28
[14] = test system: SK-MEL-2
[15] = test system: SK-OV-3
[16] = test system: SNB-19
[17] = test system: U-251
[18] = test system: UACC-257
[19] = test system: UACC-62
[20] = test system: SK-MEL-5

Row | Structure (SMILES) | GI50 [1] | GI50 [2] | GI50 [3] | GI50 [4] [µM] | GI50 [5] | GI50 [6] | GI50 [7] | GI50 [8] | GI50 [9] | GI50 [10] | GI50 [11] | GI50 [12] | GI50 [13] | GI50 [14] | GI50 [15] | GI50 [16] | GI50 [17] | GI50 [18] | GI50 [19] | GI50 [20]
1 | O=c1cc(N2CCCC2)[nH]c(=O)n1-c1ccc(Cl)cc1 | > 100 µM (inactive) | > 100 µM (inactive) | > 100 µM (inactive) | > 100 | > 100 µM (inactive) | > 100 µM (inactive) | > 100 µM (inactive) | > 100 µM (inactive) | > 100 µM (inactive) | > 100 µM (inactive) | > 100 µM (inactive) | > 100 µM (inactive) | > 100 µM (inactive) | > 100 µM (inactive) | > 100 µM (inactive) | > 100 µM (inactive) | > 100 µM (inactive) | > 100 µM (inactive) | > 100 µM (inactive) | 
2 | C=C1C(=O)[C@@]23CC[C@@H]4[C@@]5(C)CCC[C@@]4(OC5=O)[C@@]2(C)CC[C@@H]1C3 | 1.24 µM (inactive) | 0.863 µM (active) | 2.11 µM (inactive) | 0.67 | 0.484 µM (active) | 4.48 µM (inactive) | 2.59 µM (inactive) | 2.38 µM (inactive) | 2.12 µM (inactive) | 2.3 µM (inactive) | 1.76 µM (inactive) | 0.508 µM (active) | 2.74 µM (inactive) | 2.13 µM (inactive) | 9.23 µM (inactive) | 3.23 µM (inactive) | 1.97 µM (inactive) | 1.49 µM (inactive) | 1.48 µM (inactive) | 0.962 µM (active)
3 | CSc1nc2c(c(=O)[nH]1)N=C(c1ccc(Cl)cc1)CC(c1ccccc1)N2 (configuration not stated) | 15.6 µM (inactive) | 20 µM (inactive) | 19.8 µM (inactive) |  | 16.7 µM (inactive) | 18.4 µM (inactive) | 16.4 µM (inactive) | 11.5 µM (inactive) | 18.1 µM (inactive) | 16.5 µM (inactive) | 19 µM (inactive) | 17.4 µM (inactive) | 17.3 µM (inactive) | 14.1 µM (inactive) |  | 15.2 µM (inactive) | 17.7 µM (inactive) | 16.2 µM (inactive) | > 10 µM (inactive) | 13.3 µM (inactive)
4 | CC[C@]12C=CCN3CCC4(c5cc(/N=N/c6ccccc6)c(OC)cc5N(C)[C@H]4[C@@](O)(C(=O)OC)[C@@H]1OC(C)=O)[C@@H]32 (some centres not stated) | 16.1 µM (inactive) | 24.2 µM (inactive) | 25.2 µM (inactive) | 17.3 | 17.3 µM (inactive) | 15.4 µM (inactive) | 18.7 µM (inactive) | 17.1 µM (inactive) | 17 µM (inactive) | 19.5 µM (inactive) | 14.7 µM (inactive) | 19.2 µM (inactive) | 20.3 µM (inactive) | 17.1 µM (inactive) |  | 20.5 µM (inactive) | 15.9 µM (inactive) | 16.6 µM (inactive) | 14.5 µM (inactive) | 19.9 µM (inactive)
5 | CC1(C)OC2[C@@H](CO[C@@]3([C@@H](O)CCO)OC(C)(C)O[C@@H]23)O1 (some centres not stated) | > 100 µM (inactive) | > 100 µM (inactive) | > 100 µM (inactive) | > 100 | > 100 µM (inactive) | > 100 µM (inactive) | > 100 µM (inactive) | > 100 µM (inactive) | > 100 µM (inactive) | > 100 µM (inactive) | > 100 µM (inactive) | > 100 µM (inactive) | > 100 µM (inactive) | > 100 µM (inactive) |  | > 100 µM (inactive) | > 100 µM (inactive) | > 100 µM (inactive) | > 100 µM (inactive) | > 100 µM (inactive)
6 | COc1ccccc1OC(=O)/C=C/c1ccccc1 | > 100 µM (inactive) | > 100 µM (inactive) | > 100 µM (inactive) | > 100 | 64.1 µM (inactive) | > 100 µM (inactive) | > 100 µM (inactive) | > 100 µM (inactive) | > 100 µM (inactive) | > 100 µM (inactive) | > 100 µM (inactive) | 5.33 µM (inactive) | > 100 µM (inactive) | > 100 µM (inactive) | > 100 µM (inactive) | > 100 µM (inactive) | > 100 µM (inactive) | 35.8 µM (inactive) | > 100 µM (inactive) | > 100 µM (inactive)
7 | COC/C=C\[C@]1(O)CCCC[C@@H]1CC(OC)OC | > 100 µM (inactive) | > 100 µM (inactive) | > 100 µM (inactive) | > 100 | 20.4 µM (inactive) | > 100 µM (inactive) | > 100 µM (inactive) | > 100 µM (inactive) | > 100 µM (inactive) | > 100 µM (inactive) | > 100 µM (inactive) | 97.7 µM (inactive) | > 100 µM (inactive) | > 100 µM (inactive) | > 100 µM (inactive) | > 100 µM (inactive) | > 100 µM (inactive) | > 100 µM (inactive) | > 100 µM (inactive) | > 100 µM (inactive)
8 | CC1=NN(c2cccc(Cl)c2)C2(SCC(=O)N2c2nc3ccccc3s2)/C1=C\c1ccc(N(C)C)cc1 (configuration not stated) | 26.1 µM (inactive) | 85.9 µM (inactive) |  | 56.1 | > 100 µM (inactive) | 23.7 µM (inactive) | > 100 µM (inactive) | 93.5 µM (inactive) | > 100 µM (inactive) | 58.9 µM (inactive) | > 100 µM (inactive) | 44.2 µM (inactive) | > 100 µM (inactive) | 23.9 µM (inactive) | 17.5 µM (inactive) |  | 35.7 µM (inactive) | 56.8 µM (inactive) |  | 39.7 µM (inactive)
9 | CCOC(=O)C1C(c2ccco2)C2(C#N)C(=N)OC1(C)C2(C#N)C#N (configuration not stated) | > 100 µM (inactive) | > 100 µM (inactive) | > 100 µM (inactive) | 33.1 | > 10 µM (inactive) | > 100 µM (inactive) | > 100 µM (inactive) |  | > 100 µM (inactive) | > 100 µM (inactive) | > 100 µM (inactive) | > 100 µM (inactive) |  | > 100 µM (inactive) | > 100 µM (inactive) | > 100 µM (inactive) | > 100 µM (inactive) | > 100 µM (inactive) | > 100 µM (inactive) | > 100 µM (inactive)
10 | COc1c(-c2ccc(F)cc2)oc2cc(O)cc(O)c2c1=O | 30.7 µM (inactive) | 24.3 µM (inactive) | 20.9 µM (inactive) | 18.5 | 30.9 µM (inactive) | 35.6 µM (inactive) | 30.5 µM (inactive) |  | 25.5 µM (inactive) | 28.7 µM (inactive) | 34 µM (inactive) | 30.4 µM (inactive) | 46.9 µM (inactive) | 23.3 µM (inactive) | 30.5 µM (inactive) | 23.9 µM (inactive) | 30.5 µM (inactive) |  |  | 16.5 µM (inactive)
11 | Cn1cccc1-c1ccc(-c2ccc(CO)[se]2)[se]1 | 38.9 µM (inactive) | 0.188 µM (active) | 11.4 µM (inactive) | 12.6 | 7.35 µM (inactive) | > 100 µM (inactive) | 8.99 µM (inactive) | 2.61 µM (inactive) | 53.5 µM (inactive) | 27.7 µM (inactive) | 24.5 µM (inactive) | 7.98 µM (inactive) | 16.6 µM (inactive) | 28.8 µM (inactive) | 22.1 µM (inactive) | 17.8 µM (inactive) | 9.53 µM (inactive) |  | 9.57 µM (inactive) | 11.4 µM (inactive)
12 | O=C1C(NCCc2cc(Br)c(O)c(Br)c2)=CC(=O)c2ncccc21 | 6.38 µM (inactive) | 7.29 µM (inactive) | 5.7 µM (inactive) | 5.79 | 2.32 µM (inactive) | 28.1 µM (inactive) | 4.43 µM (inactive) | 6 µM (inactive) | 6.52 µM (inactive) | 3.85 µM (inactive) | 20.9 µM (inactive) | 4.79 µM (inactive) | 3.21 µM (inactive) | 8.07 µM (inactive) | 14.8 µM (inactive) | 3.86 µM (inactive) | 5.55 µM (inactive) | 2.88 µM (inactive) | 1.83 µM (inactive) | 1.47 µM (inactive)
13 | CC(C)(C)OC(=O)NNCC(O)COc1ccccc1 (configuration not stated) | > 100 µM (inactive) | > 100 µM (inactive) | > 100 µM (inactive) | > 100 | 0.0318 µM (active) | > 100 µM (inactive) |  | > 100 µM (inactive) | > 100 µM (inactive) | > 100 µM (inactive) | > 100 µM (inactive) | > 100 µM (inactive) | > 100 µM (inactive) | > 100 µM (inactive) | > 100 µM (inactive) | > 100 µM (inactive) | > 100 µM (inactive) | > 100 µM (inactive) | > 100 µM (inactive) | > 100 µM (inactive)
14 | CC12CCC3[C@@H](CC3(C)C)C(O)(CCC1=O)C2 (some centres not stated) | > 100 µM (inactive) | > 100 µM (inactive) | > 100 µM (inactive) | > 100 | > 100 µM (inactive) | > 100 µM (inactive) | > 100 µM (inactive) | > 100 µM (inactive) | > 100 µM (inactive) | > 100 µM (inactive) | > 100 µM (inactive) | > 100 µM (inactive) | > 100 µM (inactive) | > 100 µM (inactive) | > 100 µM (inactive) |  | > 100 µM (inactive) | > 100 µM (inactive) | > 100 µM (inactive) | > 100 µM (inactive)
15 | CCN(CC)CCC(=O)/C=C/c1ccccc1 | 12.6 µM (inactive) | 3.27 µM (inactive) | 7.11 µM (inactive) | 15.6 | 2.55 µM (inactive) | 10.4 µM (inactive) | 6.5 µM (inactive) | 21.1 µM (inactive) | 17.5 µM (inactive) | 19 µM (inactive) | 12.8 µM (inactive) | 1.97 µM (inactive) | 15.2 µM (inactive) | 23.3 µM (inactive) |  | 18.1 µM (inactive) | 12 µM (inactive) | 16.2 µM (inactive) |  | 18.4 µM (inactive)
